Laboratory results published in patent US9428459B2, “Difluoromethyl-nicotinic- tetrahydronaphtyl carboxamides” (BAYER CROPSCIENCE AG, priority 2012, dated 2016).

Assays:
[1] = log P by HPLC on reversed phase columns (EEC directive 79/831 Annex V.A8); format: physicochemical; details: method [a]: LC-MS at pH 2.7, 0.1% formic acid in water / acetonitrile, gradient 10% to 95% acetonitrile; for chromatographic logP: reversed phase HPLC columns
Description: Measurement of log P values was performed according EEC directive 79/831 Annex V.A8 by HPLC (High Performance Liquid Chromatography) on reversed phase columns with the following methods: ^[a]Measurement of LC-MS was done at pH 2.7 with 0.1% formic acid in water and with acetonitrile (contains 0.1% formic acid) as eluent with a linear gradient from 10% acetonitrile to 95% acetonitrile. Calibration was done with not branched alkan2-ones (with 3 to 16 carbon atoms) with known log P-values (measurement of log P values using retention times with linear interpolation between successive alkanones). lambda-maX-values were determined using UV-spectra from 200 nm to 400 nm and the peak values of the chromatographic signals.

Alternaria brassicae = test: In vivo preventive test on Alternaria brassicae (leaf spot on radish); details: dose 500 ppm, radish plants, preventive spray, grading 6 days after contamination
Description: Radish plants (“Pernod Clair” variety), sown in starter cups on a 50/50 peat soil-pozzolana substrate and grown at 17° C., are treated at the cotyledon stage by spraying with the active ingredient prepared as described above. Plants, used as controls, are treated with the mixture of acetone/tween/DMSO/water not containing the active material. After 24 hours, the plants are contaminated by spraying the cotyledons with an aqueous suspension of Alternaria brassicae spores (50 000 spores per ml). The spores are collected from a 15-day-old culture. The contaminated radish plants are incubated at 20° C. and at 100% relative humidity. Grading (% of efficacy) is carried out 6 days after the contamination, in comparison with the control plants.

Pyrenophora teres = test: In vivo preventive test on Pyrenophora teres (net blotch on barley); details: dose 500 ppm, barley plants, preventive spray, grading 14 days after contamination
Description: Barley plants (“Plaisant” variety), sown in starter cups on a 50/50 peat soil-pozzolana substrate and grown at 22° C., are treated at the 1-leaf stage (10 cm height) by spraying with the active ingredient prepared as described above. Plants, used as controls, are treated with the mixture of acetone/tween/DMSO/water not containing the active material. After 24 hours, the plants are contaminated by spraying the leaves with an aqueous suspension of Pyrenophora teres spores (12 000 spores per ml). The spores are collected from a 12-day-old culture. The contaminated barley plants are incubated for 48 hours at 20° C. and at 100% relative humidity, and then for 12 days at 20° C. at 70-80% relative humidity. Grading (% of efficacy) is carried out 14 days after the contamination, in comparison with the control plants.

Botrytis cinerea = test: In vivo preventive test on Botrytis cinerea (grey mould); details: gherkin plants, preventive spray, grading 4 to 5 days after contamination
Description: Gherkin plants (“Vert petit de Paris” variety), sown in starter cups on a 50/50 peat soil-pozzolana substrate and grown at 24° C., are treated at the Z11 cotyledon stage by spraying with the active ingredient prepared as described above. Plants, used as controls, are treated with the mixture of acetone/tween/DMSO/water not containing the active material. After 24 hours, the plants are contaminated by spraying the cotyledons with an aqueous suspension of cryopreserved Botrytis cinerea spores (50 000 spores per ml). The spores are suspended in a nutrient solution composed of 10 g/L of PDB, 50 g/L of D-Fructose, 2 g/L of NH4NO3 and 1 g/L of KH2PO4. The contaminated gherkin plants are incubated at 17° C. and at 90% relative humidity. Grading (% of efficacy) is carried out 4 to 5 days after the contamination, in comparison with the control plants.

Puccinia recondita = test: In vivo preventive test on Puccinia recondita (brown rust on wheat); details: wheat plants, preventive spray, grading 12 days after contamination
Description: Wheat plants (“Scipion” variety), sown in starter cups on a 50/50 peat soil-pozzolana substrate and grown at 22° C., are treated at the 1-leaf stage (10 cm height) by spraying with the active ingredient prepared as described above. Plants, used as controls, are treated with the mixture of acetone/tween/DMSO/water not containing the active material. After 24 hours, the plants are contaminated by spraying the leaves with an aqueous suspension of Puccinia recondita spores (100 000 spores per ml). The spores are collected from an infected plant and are suspended in water containing 2.5 ml/l of Tween 80 at 10%. The contaminated wheat plants are incubated for 24 hours at 20° C. and at 100% relative humidity, and then for 10 days at 20° C. and at 70-80% relative humidity. Grading (% of efficacy) is carried out 12 days after the contamination, in comparison with the control plants.

Uromyces appendiculatus = test: In vivo preventive test on Uromyces appendiculatus (bean rust); details: dose 500 ppm, bean plants, preventive spray, grading 11 days after contamination
Description: The active ingredients tested are prepared by homogenization in a mixture of acetone/tween/DMSO, and then diluted with water to obtain the desired active material concentration.
Bean plants (“Saxa” variety), sown in starter cups on a 50/50 peat soil-pozzolana substrate and grown at 24° C., are treated at the 2-leaf stage (9 cm height) by spraying with the active ingredient prepared as described above. Plants, used as controls, are treated with the mixture of acetone/tween/DMSO/water not containing the active material.
After 24 hours, the plants are contaminated by spraying the leaves with an aqueous suspension of Uromyces appendiculatus spores (150 000 spores per ml). The spores are collected from infected plants and are suspended in water containing 2.5 ml/l of Tween 80 at 10%. The contaminated bean plants are incubated for 24 hours at 20° C. and at 100% relative humidity, and then for 10 days at 20° C. and at 70-80% relative humidity.
Grading (% of efficacy) is carried out 11 days after the contamination, in comparison with the control plants.

Sphaerotheca fuliginea = test: In vivo preventive test on Sphaerotheca fuliginea (powdery mildew on cucurbits); details: dose 100 ppm, gherkin plants, preventive spray, grading 12 days after contamination
Description: Gherkin plants (“Vert petit de Paris” variety), sown in starter cups on a 50/50 peat soil-pozzolana substrate and grown at 24° C., are treated at the Z11 cotyledon stage by spraying with the active ingredient prepared as described above. Plants, used as controls, are treated with the mixture of acetone/tween/DMSO/water not containing the active material. After 24 hours, the plants are contaminated by spraying the cotyledons with an aqueous suspension of Sphaerotheca fuliginea spores (100 000 spores per ml). The spores are collected from infected plants. The contaminated gherkin plants are incubated at about 20° C. and at 70-80% relative humidity. Grading (% of efficacy) is carried out 12 days after the contamination, in comparison with the control plants.

Septoria tritici = test: In vivo preventive test on Septoria tritici (leaf spot on wheat); details: dose 100 ppm, wheat plants, preventive spray, grading 24 days after contamination
Description: Wheat plants (“Scipion” variety), sown in starter cups on a 50/50 peat soil-pozzolana substrate and grown at 22° C., are treated at the 1-leaf stage (10 cm height) by spraying with the active ingredient prepared as described above. Plants, used as controls, are treated with the mixture of acetone/tween/DMSO/water not containing the active material. After 24 hours, the plants are contaminated by spraying the leaves with an aqueous suspension of cryopreserved Septoria tritici spores (500 000 spores per ml). The contaminated wheat plants are incubated for 72 hours at 18° C. and at 100% relative humidity, and then for 21 days at 90% relative humidity. Grading (% of efficacy) is carried out 24 days after the contamination, in comparison with the control plants.

SMILES | logP [1] | further results
CC1CCc2c(NC(=O)c3cccnc3C(F)F)cccc2C1C (mixture of isomers) [Example 6] | 3.24^[a] | 
CC1(C)CCc2cccc(NC(=O)c3cccnc3C(F)F)c2C1 [Example 1, 2-(difluoromethyl)-N-(7,7-dimethyl-5,6,7,8-tetrahydronaphthalen-1-yl)nicotinamide] |  | chromatographic logP [1]: 3.23
CC1c2cccc(NC(=O)c3cccnc3C(F)F)c2CCC1(C)C (stereo not shown) [Example 2] | 3.55^[a] | 
CC1CCC(C)(C)c2cccc(NC(=O)c3cccnc3C(F)F)c21 (stereo not shown) [Example 3] | 3.37^[a] | 
C=C1c2cccc(NC(=O)c3cccnc3C(F)F)c2CCC1(C)C [Example 4] | 3.33^[a] | biological efficacy (Alternaria brassicae): ≥ 70%
CC1(C)CCc2c(NC(=O)c3cccnc3C(F)F)cccc2C1=O [Example 5] | 2.28^[a] | biological efficacy (Pyrenophora teres): ≥ 70%
Cc1cnc(C(F)F)c(C(=O)Nc2cccc3c2CCC(C)(C)C3)c1 [Example 7, 2-(difluoromethyl)-N-(6,6-dimethyl-5,6,7,8-tetrahydronaphthalen-1-yl)-5-methylnicotinamide] |  | chromatographic logP [1]: 3.52
CON=C1CCCc2c(NC(=O)c3cc(C)cnc3C(F)F)cccc21 [Example 8] | 2.75^[a] | 
CON=C1CCCc2c(NC(=O)c3cccnc3C(F)F)cccc21 [Example 9] | 2.49^[a] | biological efficacy (Alternaria brassicae): ≥ 90%; biological efficacy (Botrytis cinerea; dose 500 ppm): ≥ 70%; biological efficacy (Puccinia recondita; dose 500 ppm): ≥ 70%; biological efficacy (Uromyces appendiculatus): ≥ 70%
Cc1cnc(C(F)F)c(C(=O)Nc2ccc(F)c3c2CCCC3(C)C)c1 [Example 10] | 3.57^[a] | 
CC1(C)CCCc2c(NC(=O)c3ccc(Cl)nc3C(F)F)ccc(F)c21 [Example 11] | 3.94^[a] | 
CC1(C)CCCc2c(NC(=O)c3cccnc3C(F)F)ccc(F)c21 [Example 12] | 3.29^[a] | 
CCON=C1CCCc2c(NC(=O)c3cc(C)cnc3C(F)F)cccc21 [Example 13] | 3.19^[a] | 
CC1(C)CCc2c(cccc2NC(=O)c2cccnc2C(F)F)C1 [Example 14] | 3.23^[a] | 
CC1(C)CCCc2c(NC(=S)c3cccnc3C(F)F)ccc(F)c21 [Example 15] | 3.79^[a] | 
CCON=C1CCCc2c(NC(=O)c3cccnc3C(F)F)cccc21 [Example 16] | 2.90^[a] | 
Cc1cnc(C(F)F)c(C(=S)Nc2cccc3c2CCC(C)(C)C3)c1 [Example 17, 2-(difluoromethyl)-N-(6,6-dimethyl-5,6,7,8-tetrahydronaphthalen-1-yl)-5-methylpyridine-3-carbothioamide] |  | chromatographic logP [1]: 3.94
CC(C)C1CCCc2c(NC(=O)c3cccnc3C(F)F)cccc21 (stereo not shown) [Example 18] | 3.60^[a] | biological efficacy (Botrytis cinerea; dose 100 ppm): ≥ 90%; biological efficacy (Puccinia recondita; dose 100 ppm): ≥ 90%; biological efficacy (Sphaerotheca fuliginea): ≥ 80%
CC(C)C1CCCc2c(NC(=O)c3ccc(Cl)nc3C(F)F)cccc21 (stereo not shown) [Example 19] | 4.31^[a] | biological efficacy (Puccinia recondita; dose 100 ppm): ≥ 70%; biological efficacy (Septoria tritici): ≥ 70%
Cc1cnc(C(F)F)c(C(=O)Nc2cccc3c2CCCC3(C)C)c1 [Example 20] | 3.46^[a] | 
